Results as given in ChEMBL document CHEMBL4402608 (J Med Chem, 2020).
pKi: −log10 of the molar value.

Key:
D(2) dopamine receptor [1] = biological target: T1, D(2) dopamine receptor (Homo sapiens, UniProt P14416); experiment: Agonist activity at human D2RL expressed in CHOK1/human U2OS cells assessed as induction of beta-arrestin recruitment at 10 uM measured after 90 mins by beta-galactosidase based PathHunter assay; type: cell-based
D(4) dopamine receptor [2] = biological target: T2, D(4) dopamine receptor (Homo sapiens, UniProt P21917); experiment: Agonist activity at Gi/Go-coupled human D4R expressed in CHOK1 cells assessed as induction of beta-arrestin recruitment at 10 uM measured after 90 mins by beta-galactosidase based PathHunter assay; type: cell-based
T2 sequence (P21917 whole entry): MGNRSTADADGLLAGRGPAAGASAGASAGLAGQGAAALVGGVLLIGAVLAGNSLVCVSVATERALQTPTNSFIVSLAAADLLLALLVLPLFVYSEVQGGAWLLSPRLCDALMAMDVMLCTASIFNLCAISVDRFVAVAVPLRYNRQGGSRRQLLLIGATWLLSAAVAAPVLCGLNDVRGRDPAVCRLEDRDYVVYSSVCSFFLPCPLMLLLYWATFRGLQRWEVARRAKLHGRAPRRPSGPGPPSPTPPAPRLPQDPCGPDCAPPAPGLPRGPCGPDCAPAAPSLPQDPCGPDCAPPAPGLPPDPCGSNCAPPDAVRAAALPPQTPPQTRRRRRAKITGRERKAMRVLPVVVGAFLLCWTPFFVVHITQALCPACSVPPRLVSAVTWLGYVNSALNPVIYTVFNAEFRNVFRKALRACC

GABA PBR = experiment: Displacement of [3H]-PK11195 from rat brain GABA PBR at 10 uM measured after 90 mins by microbeta scintillation counting method relative to control; conditions: probe [3H]-PK11195
D(2) dopamine receptor [3] = biological target: T1, D(2) dopamine receptor; experiment: Agonist activity at human D2RS expressed in CHOK1/human U2OS cells assessed as induction of beta-arrestin recruitment at 10 uM measured after 90 mins by beta-galactosidase based PathHunter assay; type: cell-based
[4] = Displacement of [3H]-Flunitrazepam from rat brain GABA(A)/BzR site measured after 90 mins by microbeta scintillation counting method
GABA(A)/BzR site = experiment: Displacement of [3H]-Flunitrazepam from rat brain GABA(A)/BzR site at 10 uM measured after 90 mins by microbeta scintillation counting method relative to control; conditions: probe [3H]-Flunitrazepam
[5] = biological target: Atypical chemokine receptor 3 (Homo sapiens, UniProt P25106); experiment: Agonist activity at human PK1-tgged CXCR7 expressed in CHOK1 cells assessed as induction of beta-arrestin recruitment at 10 uM measured after 90 mins by beta-galactosidase based PathHunter assay; type: cell-based
D(4) dopamine receptor [6] = biological target: T2, D(4) dopamine receptor; experiment: Displacement of [3H]-N-methylspiperone from recombinant human D4 receptor stably expressed in HEK cell membranes measured after 90 mins by microbeta scintillation counting method
[7] = biological target: 5-hydroxytryptamine receptor 5A (Homo sapiens, UniProt P47898)
Sequence of 5-hydroxytryptamine receptor 5A (P47898 whole entry): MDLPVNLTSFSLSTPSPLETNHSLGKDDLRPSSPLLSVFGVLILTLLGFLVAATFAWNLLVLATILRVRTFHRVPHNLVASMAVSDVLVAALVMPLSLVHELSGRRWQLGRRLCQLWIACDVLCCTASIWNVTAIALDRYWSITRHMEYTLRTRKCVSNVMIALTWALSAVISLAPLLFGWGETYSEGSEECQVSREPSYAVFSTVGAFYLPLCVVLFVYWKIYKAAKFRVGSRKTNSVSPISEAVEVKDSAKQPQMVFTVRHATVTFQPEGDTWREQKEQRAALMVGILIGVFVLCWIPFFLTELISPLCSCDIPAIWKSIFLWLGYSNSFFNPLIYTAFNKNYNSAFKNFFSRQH

[8] = biological target: T3, Alpha-1A adrenergic receptor (Homo sapiens, UniProt P35348)
T3 sequence (P35348 whole entry): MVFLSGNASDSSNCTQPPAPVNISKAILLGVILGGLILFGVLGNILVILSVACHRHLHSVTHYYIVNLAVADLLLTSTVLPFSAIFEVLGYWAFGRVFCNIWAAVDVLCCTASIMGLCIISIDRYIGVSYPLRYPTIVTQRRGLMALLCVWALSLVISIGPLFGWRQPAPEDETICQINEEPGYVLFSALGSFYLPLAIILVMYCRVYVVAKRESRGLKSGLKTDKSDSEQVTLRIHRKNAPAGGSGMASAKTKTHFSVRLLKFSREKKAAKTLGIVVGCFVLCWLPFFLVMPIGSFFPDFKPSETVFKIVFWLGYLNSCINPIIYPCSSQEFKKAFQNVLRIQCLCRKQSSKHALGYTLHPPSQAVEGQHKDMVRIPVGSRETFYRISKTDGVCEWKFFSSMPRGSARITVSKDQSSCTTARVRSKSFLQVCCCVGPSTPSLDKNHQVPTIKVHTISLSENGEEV

[9] = biological target: T4, Beta-2 adrenergic receptor (Homo sapiens, UniProt P07550); experiment: Displacement of [3H]-CGP12177 from recombinant human beta2 adrenergic receptor expressed in HEK Flp-In cell membranes measured after 90 mins by microbeta scintillation counting method
T4 sequence (P07550 whole entry): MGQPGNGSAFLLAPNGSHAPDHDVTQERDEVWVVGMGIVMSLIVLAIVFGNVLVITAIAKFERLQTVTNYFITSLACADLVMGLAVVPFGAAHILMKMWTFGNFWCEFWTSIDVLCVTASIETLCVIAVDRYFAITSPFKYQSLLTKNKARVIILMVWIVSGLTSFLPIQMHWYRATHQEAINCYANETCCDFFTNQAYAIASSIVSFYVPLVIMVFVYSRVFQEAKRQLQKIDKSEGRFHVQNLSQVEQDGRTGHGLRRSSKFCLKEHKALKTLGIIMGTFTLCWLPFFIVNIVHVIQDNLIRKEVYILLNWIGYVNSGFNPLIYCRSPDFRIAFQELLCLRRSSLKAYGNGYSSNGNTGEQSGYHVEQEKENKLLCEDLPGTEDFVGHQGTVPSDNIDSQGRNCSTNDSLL

[10] = biological target: Muscarinic acetylcholine receptor M1 (Homo sapiens, UniProt P11229)
Sequence of Muscarinic acetylcholine receptor M1 (P11229 whole entry): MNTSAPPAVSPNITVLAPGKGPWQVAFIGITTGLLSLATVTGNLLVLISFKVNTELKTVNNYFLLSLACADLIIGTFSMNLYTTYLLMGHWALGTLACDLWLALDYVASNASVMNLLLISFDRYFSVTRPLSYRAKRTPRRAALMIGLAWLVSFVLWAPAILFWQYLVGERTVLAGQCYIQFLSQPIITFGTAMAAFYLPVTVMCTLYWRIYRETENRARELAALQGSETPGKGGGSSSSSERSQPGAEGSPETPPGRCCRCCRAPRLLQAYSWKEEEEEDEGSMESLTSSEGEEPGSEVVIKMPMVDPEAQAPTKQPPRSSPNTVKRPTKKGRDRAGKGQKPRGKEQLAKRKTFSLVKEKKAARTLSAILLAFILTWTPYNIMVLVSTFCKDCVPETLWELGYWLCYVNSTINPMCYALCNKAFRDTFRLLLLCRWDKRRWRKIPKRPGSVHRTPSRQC

[11] = biological target: Delta-type opioid receptor (Homo sapiens, UniProt P41143)
[12] = biological target: 5-hydroxytryptamine receptor 3A (Homo sapiens, UniProt P46098)
[13] = biological target: T5, Alpha-2C adrenergic receptor (Homo sapiens, UniProt P18825)
T5 sequence (P18825 whole entry): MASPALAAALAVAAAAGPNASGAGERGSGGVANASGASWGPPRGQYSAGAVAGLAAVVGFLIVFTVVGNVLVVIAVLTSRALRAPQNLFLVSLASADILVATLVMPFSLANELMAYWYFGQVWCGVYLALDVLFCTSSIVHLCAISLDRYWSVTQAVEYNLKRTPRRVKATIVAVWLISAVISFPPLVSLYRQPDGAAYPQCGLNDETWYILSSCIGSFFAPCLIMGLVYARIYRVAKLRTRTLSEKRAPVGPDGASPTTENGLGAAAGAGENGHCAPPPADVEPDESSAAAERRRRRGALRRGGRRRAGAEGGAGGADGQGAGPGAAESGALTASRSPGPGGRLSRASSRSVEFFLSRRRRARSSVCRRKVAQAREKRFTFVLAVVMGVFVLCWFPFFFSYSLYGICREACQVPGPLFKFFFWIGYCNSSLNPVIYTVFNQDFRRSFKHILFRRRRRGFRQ

[14] = biological target: Sigma non-opioid intracellular receptor 1 (Homo sapiens, UniProt Q99720); experiment: Displacement of [3H]-pentazocine from sigma1 receptor (unknown origin) after 90 mins by microbeta scintillation counting method
Sequence of Sigma non-opioid intracellular receptor 1 (Q99720 whole entry): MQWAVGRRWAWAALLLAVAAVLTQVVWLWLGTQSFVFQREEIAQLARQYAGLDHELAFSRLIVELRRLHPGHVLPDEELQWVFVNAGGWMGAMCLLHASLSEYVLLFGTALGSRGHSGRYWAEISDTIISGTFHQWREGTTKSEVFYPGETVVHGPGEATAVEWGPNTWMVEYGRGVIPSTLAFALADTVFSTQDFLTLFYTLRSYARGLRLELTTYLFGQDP

[15] = biological target: beta3 adrenergic receptor (Homo sapiens, UniProt P13945)
Sequence of beta3 adrenergic receptor (P13945 whole entry): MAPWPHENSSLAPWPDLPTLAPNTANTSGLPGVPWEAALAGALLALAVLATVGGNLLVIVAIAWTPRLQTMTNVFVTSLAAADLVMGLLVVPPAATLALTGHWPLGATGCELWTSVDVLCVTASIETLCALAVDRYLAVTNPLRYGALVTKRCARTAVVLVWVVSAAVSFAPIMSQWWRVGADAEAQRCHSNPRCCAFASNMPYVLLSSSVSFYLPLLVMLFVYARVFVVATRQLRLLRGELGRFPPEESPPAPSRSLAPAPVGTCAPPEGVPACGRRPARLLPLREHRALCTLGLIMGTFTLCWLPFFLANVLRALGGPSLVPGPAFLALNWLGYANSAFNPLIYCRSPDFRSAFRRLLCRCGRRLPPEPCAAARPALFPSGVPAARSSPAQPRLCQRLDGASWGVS

[16] = biological target: 5-hydroxytryptamine receptor 1E (Homo sapiens, UniProt P28566)
Sequence of 5-hydroxytryptamine receptor 1E (P28566 whole entry): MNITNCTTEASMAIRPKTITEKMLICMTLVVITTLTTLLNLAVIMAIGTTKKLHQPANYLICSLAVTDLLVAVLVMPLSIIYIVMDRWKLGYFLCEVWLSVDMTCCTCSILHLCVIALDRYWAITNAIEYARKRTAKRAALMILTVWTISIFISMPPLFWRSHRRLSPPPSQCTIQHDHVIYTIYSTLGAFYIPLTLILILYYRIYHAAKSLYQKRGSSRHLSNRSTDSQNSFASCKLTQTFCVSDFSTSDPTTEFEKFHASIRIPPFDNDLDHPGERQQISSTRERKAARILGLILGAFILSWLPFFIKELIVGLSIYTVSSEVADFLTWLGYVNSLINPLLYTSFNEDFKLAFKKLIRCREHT

[17] = biological target: Muscarinic acetylcholine receptor M3 (Homo sapiens, UniProt P20309)
Sequence of Muscarinic acetylcholine receptor M3 (P20309 whole entry): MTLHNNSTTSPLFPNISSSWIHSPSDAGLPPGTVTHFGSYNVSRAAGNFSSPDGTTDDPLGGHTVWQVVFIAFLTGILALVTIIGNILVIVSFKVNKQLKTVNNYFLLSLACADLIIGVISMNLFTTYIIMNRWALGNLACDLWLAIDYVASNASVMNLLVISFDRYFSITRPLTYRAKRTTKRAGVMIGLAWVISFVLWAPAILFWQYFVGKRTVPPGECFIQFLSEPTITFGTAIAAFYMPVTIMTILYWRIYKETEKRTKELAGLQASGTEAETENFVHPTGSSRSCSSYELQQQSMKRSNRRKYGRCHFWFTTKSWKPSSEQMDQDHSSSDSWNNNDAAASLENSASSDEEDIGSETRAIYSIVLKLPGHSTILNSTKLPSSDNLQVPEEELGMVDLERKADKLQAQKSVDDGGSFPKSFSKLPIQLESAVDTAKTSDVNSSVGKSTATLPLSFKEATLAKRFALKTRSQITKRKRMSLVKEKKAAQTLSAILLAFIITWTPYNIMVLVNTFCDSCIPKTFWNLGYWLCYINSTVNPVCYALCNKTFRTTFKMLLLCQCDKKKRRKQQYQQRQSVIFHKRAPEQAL

[18] = biological target: Muscarinic acetylcholine receptor M2 (Homo sapiens, UniProt P08172)
[19] = biological target: 5-hydroxytryptamine receptor 1D (Homo sapiens, UniProt P28221)
Sequence of 5-hydroxytryptamine receptor 1D (P28221 whole entry): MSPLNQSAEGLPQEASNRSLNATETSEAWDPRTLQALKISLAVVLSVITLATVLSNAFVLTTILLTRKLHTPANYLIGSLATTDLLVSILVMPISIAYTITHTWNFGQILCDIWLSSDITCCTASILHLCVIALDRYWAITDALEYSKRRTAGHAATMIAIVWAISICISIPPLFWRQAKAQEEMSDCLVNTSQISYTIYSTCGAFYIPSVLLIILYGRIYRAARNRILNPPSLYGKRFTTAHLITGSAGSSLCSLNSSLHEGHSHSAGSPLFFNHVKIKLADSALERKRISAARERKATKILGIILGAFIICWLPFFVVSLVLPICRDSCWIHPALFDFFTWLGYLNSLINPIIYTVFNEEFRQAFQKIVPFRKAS

[20] = biological target: T4, Beta-2 adrenergic receptor; experiment: Displacement of [3H]-CGP12177 from recombinant human beta2 adrenergic receptor expressed in HEK Flp-In cell membranes at 10 uM measured after 90 mins by microbeta scintillation counting method relative to control; conditions: probe [3H]-CGP12177
[21] = biological target: 5-hydroxytryptamine receptor 6 (Homo sapiens, UniProt P50406)
Sequence of 5-hydroxytryptamine receptor 6 (P50406 whole entry): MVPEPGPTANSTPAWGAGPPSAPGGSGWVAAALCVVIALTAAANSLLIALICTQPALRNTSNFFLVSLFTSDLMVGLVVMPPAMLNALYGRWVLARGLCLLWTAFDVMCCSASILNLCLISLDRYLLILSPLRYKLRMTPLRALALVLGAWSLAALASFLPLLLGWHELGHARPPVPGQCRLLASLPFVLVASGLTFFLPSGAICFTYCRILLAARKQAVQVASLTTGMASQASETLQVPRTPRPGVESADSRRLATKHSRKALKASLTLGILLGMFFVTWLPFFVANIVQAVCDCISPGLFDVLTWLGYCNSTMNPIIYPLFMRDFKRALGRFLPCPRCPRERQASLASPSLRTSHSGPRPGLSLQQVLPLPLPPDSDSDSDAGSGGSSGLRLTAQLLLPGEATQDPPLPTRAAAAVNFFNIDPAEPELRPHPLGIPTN

[22] = biological target: 5-hydroxytryptamine receptor 1B (Homo sapiens, UniProt P28222)
Histamine H4 receptor = Histamine H4 receptor (Homo sapiens, UniProt Q9H3N8)
Sequence of Histamine H4 receptor (Q9H3N8 whole entry): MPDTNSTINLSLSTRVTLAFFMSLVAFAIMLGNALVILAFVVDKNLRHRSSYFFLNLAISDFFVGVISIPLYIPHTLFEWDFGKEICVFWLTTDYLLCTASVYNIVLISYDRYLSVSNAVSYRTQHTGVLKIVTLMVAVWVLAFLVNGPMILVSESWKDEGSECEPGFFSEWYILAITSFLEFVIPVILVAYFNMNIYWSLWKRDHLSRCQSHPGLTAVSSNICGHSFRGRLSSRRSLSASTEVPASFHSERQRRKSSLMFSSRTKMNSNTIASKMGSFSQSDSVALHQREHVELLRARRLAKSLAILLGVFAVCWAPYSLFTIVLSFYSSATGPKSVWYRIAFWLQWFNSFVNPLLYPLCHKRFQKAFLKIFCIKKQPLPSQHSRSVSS

T1 sequence (P14416 whole entry): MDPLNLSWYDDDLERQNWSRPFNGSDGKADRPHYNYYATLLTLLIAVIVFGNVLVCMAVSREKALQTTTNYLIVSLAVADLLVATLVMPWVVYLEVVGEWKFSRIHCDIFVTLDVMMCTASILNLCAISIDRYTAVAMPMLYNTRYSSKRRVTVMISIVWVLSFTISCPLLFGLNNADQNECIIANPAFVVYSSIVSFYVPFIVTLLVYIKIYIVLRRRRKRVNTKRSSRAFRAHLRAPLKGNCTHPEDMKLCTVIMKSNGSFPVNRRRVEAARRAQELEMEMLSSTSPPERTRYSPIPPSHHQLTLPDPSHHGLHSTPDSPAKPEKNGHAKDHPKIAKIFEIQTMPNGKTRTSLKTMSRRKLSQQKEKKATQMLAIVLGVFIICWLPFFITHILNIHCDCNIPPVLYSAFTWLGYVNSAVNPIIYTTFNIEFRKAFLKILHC

CCCN(CC[C@]1(O)C[C@H](NC(=O)c2ccc3ccccc3c2)C1)[C@H]1CCc2nc(N)sc2C1
Activity (D(2) dopamine receptor [1]): Active
Activity (D(4) dopamine receptor [2]): Active
inhibition at […], 10 µM (GABA PBR): < 50%
Activity (D(2) dopamine receptor [3]): Active
Ki [4]: Not Active
inhibition at […], 10 µM (GABA(A)/BzR site): < 50%
Activity [5]: Active
pKi (D(4) dopamine receptor [6]): 7.35

CCCN[C@H]1CCc2nc(N)sc2C1 [PRAMIPEXOLE]
pKi [7]: < 5.00
pKi [8]: < 5.00
pKi [9]: < 5.00
pKi [10]: < 5.00
pKi [11]: < 5.00
pKi [12]: < 5.00
pKi [13]: 7.28
pKi [14]: 5.35
pKi [15]: < 5.00
pKi [16]: < 5.00
pKi [17]: < 5.00
pKi [18]: < 5.00
pKi [19]: < 5.00
inhibition at […], 10 µM [20]: > 50%
pKi [21]: < 5.00
pKi [22]: 5.45
pKi (Histamine H4 receptor): < 5.00
